Measured values from patent publication US6605639B1, “Ligands of nuclear receptor” (Nuclear Receptor Research, Ltd., priority 1998, dated 2003).

Legend:
RAR = biological target: T1, RAR (Homo sapiens, UniProt P10276); assay: RAR reporter gene (luciferase) transfer assay in COS-1 cells; assay type: cell-based; conditions: control lot = 1
T1 construct: expressed in transfected cells; host or cells: COS-1 cells
T1 sequence (P10276 1-462): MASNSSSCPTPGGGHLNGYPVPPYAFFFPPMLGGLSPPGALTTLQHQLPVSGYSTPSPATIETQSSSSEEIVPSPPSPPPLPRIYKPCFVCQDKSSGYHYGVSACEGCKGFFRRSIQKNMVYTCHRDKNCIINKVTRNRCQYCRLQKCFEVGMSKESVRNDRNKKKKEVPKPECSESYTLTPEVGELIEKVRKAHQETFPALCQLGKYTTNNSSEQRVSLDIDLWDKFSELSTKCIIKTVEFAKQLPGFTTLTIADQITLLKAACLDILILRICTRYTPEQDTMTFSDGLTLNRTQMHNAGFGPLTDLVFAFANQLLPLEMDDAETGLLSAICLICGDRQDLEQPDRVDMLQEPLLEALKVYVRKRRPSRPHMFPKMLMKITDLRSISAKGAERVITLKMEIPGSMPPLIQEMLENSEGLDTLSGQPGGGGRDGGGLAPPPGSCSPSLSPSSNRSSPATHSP
Text: Each value means the degree of increase in the luciferase activity, which is expressed by referring the luciferase activity in the control lot as to 1, caused by the addition of the corresponding compound.
As a substitute for a plasmid containing a luciferase gene under the regulation in expression by RXR response element (pRXRL:RXRE-SV40 luciferase), and the RXRα expression plasmid (pRXRα); a plasmid containing a luciferase gene under the regulation in expression by RXR response element (pRARL:RASE-SV40 luciferase), and a […] (pRARα) were transferred into COS-1 cells. Transfectants with these plasmids and the compound of the present invention (concentration: 10^−4 to 10^−7 M) were added to the culture.
(§1) After sucking off the medium from the Petri dish, […] of a cultured cell lysing solution (25 mM Tris phosphate buffer (pH 7.8), 2 mM 1,2-diaminocyclohexane-N, N,N′,N′-tetraacetate, 10% glycerol, 1% Triton X-100) was added and the cells were peeled off with a rubber policeman and collected. After completely disrupting the cells by freezing and melting, the cells were centrifuged at 4° C. (15,000 rpm, 2 min) and the supernatant thus obtained was employed as a sample for measurement. To 20 ml of the supernatant, 100 ml of a luciferase substrate solution (2.14 mg of Co-A, 100 ml of 470 mM D-Luciferin, 200 ml of 530 mM ATP, 2 ml of DTT-Tricine buffer (pH 7.8)) was added and the fluorescence intensity was measured with a luminometer (ATTO Luminosensor AB-2000). To measure the β-galactosidase for determining the gene transfer efficiency, using a Luminescent β-galactosidase detection kit II (Clontech), fluorescence intensity was measured by a luminometer.

[1] = tested on: rats given streptozotocin; assay: Relief of onset of streptozotocin-induced diabetes; assay type: in vivo, rat; conditions: male SD rats, streptozotocin 50 mg/kg i.v.; 10 mg/kg/day oral, 14 days from 24 hours after; Mean ± SE
Method: Eighteen male Wistar rats weighing about 200 g were divided into 3 groups at random. To the animals of 2 groups, 45 mg/kg of streptozotocin was intravenously administered. One of these groups was regarded as a control group, while the other was regarded as the Compound-6 administration group. To the remaining 1 group which was regarded as the normal control group, a 1/10 M citrate buffer (pH 3.5) […] was intravenously administered. Immediately after the administration of streptozotocin, a suspension of Compound-6 in acacia was orally administered once a day continuously for 10 days in a dose of 20 mg/kg/day. To other groups, an acacia solution alone was administered. After fasting for 6 hours after the final administration, blood was collected from the heart of each animal and the blood glucose level and the blood insulin level were measured. As the data given in Table 7a show, the oral administration of Compound-6 inhibited an increase in the blood glucose level and a decrease in the blood insulin level.
Eighteen male SD rats weighing about 250 g were divided into 3 groups at random. […] To the normal control group and the streptozotocin control group, the acacia solution alone was administered orally. After fasting for 6 hours after the final administration, blood was collected from the heart of each animal and the blood glucose level and the blood insulin level were measured. As the data given in Table 7b show, the oral administration of Compound-5 inhibited an increase in the blood glucose level and a decrease in the blood insulin level.

male ICR and ddY mice = assay: Serum total cholesterol lowering effect in mice; assay type: in vivo, mouse; conditions: 8 days; for Serum total cholesterol, % change: vs control; for Serum total cholesterol: Mean±SE
Text: Effect of serum cholesterol lowering agents varies among animals. Namely, some agents which are effective on a certain animal exert […] on others. For example, compactin, which is an HMG CoA reductase inhibitor, cannot lower the serum total cholesterol level when administered to rodents such as rat or mouse. This is because even though HMG CoA reductase is inhibited in the rodent liver, the enzyme is biosynthesized in an amount in excess of that for compensating the inhibition so that the inhibitory effect is negated. Accordingly, it is favorable to calibrate the effect of lowering serum total cholesterol level in as many animals as possible. Concerning the effect of the compounds of the present invention on the serum total cholesterol level, an assay was made with the use of mice. After adding these compounds to a standard powdery feed for rat and mouse, the resultant mixtures were molded into pellets and given for 8 days to male ICR and ddY mice aged 5 weeks. In the afternoon of the day 8, the blood of each animal was collected from the heart and the total cholesterol in the serum was determined. The doses were determined as the maximum dose, in which body weight gain was not suppressed after orally administering for 1 week, and as the ¼ dose thereof.
Each value is represented in Mean±SE (n=10). a) In the case of Compound-1, the control group consisted of 23 animals while the 0.04% and 0.01% groups each consisted of 12 animals.

male Wistar rats [2] = assay: Oral administration of Compound-5 to rats: toxicity and Compound-1 in the blood
Method: Male Wistar rats (n=4) weighing about 200 g were employed and the concentration of Compound-1 contained in the serum was expressed in mean±SE (FIG. 9).
In FIG. 9, open circles show a case wherein Compound-5 was solubilized with HCO-60 and orally administered in a dose of 2 mg/kg.
Solid circles show a case wherein Compound-5 was suspended in an acacia solution and orally administered in a dose of 20 mg/kg. Per part of the serum collected with the passage of time, ethanol containing 1% of acetic acid was added and the mixture was allowed to stand in the dark at room temperature for 7 days. Then Compound-1 was determined by high performance liquid chromatography.
Open squares show a case wherein Compound-5 was suspended in an acacia solution and orally administered. Then the blood was collected at definite points and Compound-1 was determined by high performance liquid chromatography immediately thereafter. […] Separately, Compound-5 suspended in an acacia solution was orally administered to rats having been cannulated into the portal vein. Then the portal blood was collected with the passage of time and Compound-1 was determined.

human RXRα = biological target: T2, human RXRα (Homo sapiens, UniProt P19793); assay: RXR reporter gene (luciferase) transfer assay in COS-1 cells; assay type: cell-based; conditions: 2 × 10^−5 M
T2 construct: expressed in transfected cells; host or cells: COS-1 cells
T2 sequence (P19793 1-462): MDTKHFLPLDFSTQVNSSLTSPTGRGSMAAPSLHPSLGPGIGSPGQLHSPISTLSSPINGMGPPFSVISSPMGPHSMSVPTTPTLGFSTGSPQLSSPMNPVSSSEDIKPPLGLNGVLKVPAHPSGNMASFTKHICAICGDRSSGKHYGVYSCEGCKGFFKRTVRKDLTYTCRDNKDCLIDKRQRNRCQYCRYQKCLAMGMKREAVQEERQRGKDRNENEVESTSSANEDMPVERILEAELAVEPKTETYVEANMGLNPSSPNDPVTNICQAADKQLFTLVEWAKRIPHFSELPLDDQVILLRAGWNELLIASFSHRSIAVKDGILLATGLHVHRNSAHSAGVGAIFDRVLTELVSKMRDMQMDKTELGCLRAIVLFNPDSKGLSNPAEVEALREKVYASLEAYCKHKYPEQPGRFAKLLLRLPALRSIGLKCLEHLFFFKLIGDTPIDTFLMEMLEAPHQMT
Method: A plasmid containing a reporter gene regulated in expression by RXR response element and an RXRα expression plasmid were transferred into COS-1 cells. Then these cells were treated with the compounds of the present invention such as ascochlorin.
Plasmids were transferred into COS-1 cells. Gene transfer was carried out in a conventional manner with the use of Lipofect AMINE reagent (Life Technologies). 1×10^5 cells were dispersed in 2 ml of Dulbecco's modified Eagle medium (DMEM) containing 10% of fetal calf serum and poured into a 35 mm Petri dish. After culturing in a CO2 incubator for 17 hours, the medium was removed and the cells adhering to the Petri dish were washed with phosphate-buffered saline (PBS). Then gene transfer was carried out by using Lipofect AMINE reagent. Namely, 500 ml of a minimum serum medium OptiMEM (Life Technologies) containing […] of a plasmid containing a luciferase gene under the regulation in expression by RXR response element (PRXRL: RXRE-SV40 luciferase; a reporter gene plasmid wherein RXRE has been ligated to SV40 promoter and luciferase cDNA, under the regulation in expression thereby, has been located downstream thereof); […] of an RXRα expression plasmid (pRXRα; a plasmid wherein human RXRα CDNA has been ligated to the downstream of a cytomegalovirus promoter to express human RXRα in mammalian cells); and 2 mg of a β-galactosidase gene plasmid to assess the gene transfer ratio (pCH110; Pharmacia) were pre-mixed with 500 ml of OptiMEM containing 50 ml of Lipofec AMINE, and the resultant mixture was maintained at room temperature for 15 minutes. 100 ml of this liquid mixture was mixed with 400 ml of OptiMEM, and the medium mixture was divided to the Petri dish. After maintaining in a CO2 incubator at 37° C. for 3 hours, the gene transfer medium was sucked off from the Petri dish and DMEM medium containing a test substance and 10% of serum (activated carbon-treated) was added thereto followed by culturing at 37° C. for 20 hours. […] Further, dimethyl sulfoxide (final concentration: 0.1%) was added as the solvent for the test substance.
as §1

[3] = tested on: hereditary obese diabetic mice ob/ob and db/db; conditions: oral; cited from earlier work
white rabbits = assay: Inhibition of arteriosclerosis in white rabbits fed high fat feed; conditions: 0.2% in high fat feed, 14 weeks
Method: Thus, a high fat feed was prepared by adding 10% of hardened coconut oil, 2% of cholesterol, 0.5% of bovine bile powder and 0.04% or 0.01% of ascochlorin to a powdery marketed standard white rabbit feed and molded the mixture into pellets. Separately, another high fat feed for the control group was prepared without using ascochlorin.
Twenty-four white rabbits weighing about 2 kg were divided into 4 groups at random. One of these groups was regarded as the control group, while the remaining 3 groups were respectively regarded as the clofibrate group, the ascochlorin 0.01% group and the ascochlorin 0.04% group at random. Then the experiment was carried out for 14 weeks.

male Wistar rats [4] = assay: Sterol balance and bile acid excretion in rats; assay type: in vivo, rat; conditions: High cholesterol feed
Method: Feed-origin cholesterol and neutral sterol and acidic sterol in the feces of rats, to which the compounds of the present invention had been administered, were determined to monitor sterol balance and changes in the bile acid composition in feces. […] Further, the bile was sampled with the passage of time from rats having been subjected to cholangiostomy and bile acids thereof were determined. […] Male Wistar rats weighting about 250 g were divided into groups each having 6 to 8 animals. […] […] The feces were collected on the days 6 and 10. Then sterols were extracted therefrom in a conventional manner, acidic sterols and neutral sterols were determined. On the other hand, cholesterol in the feed was also determined so as to calculate the amount of feed-origin sterol.

CC1=C(/C=C/C(C)=C/C=C/C(C)=C/C(=O)O)C(C)(C)CCC1 [All-trans retinoic acid, reference compound]
degree of increase in the luciferase activity, RAR vector (RAR; 10^−7 M): 46

CC(=O)Oc1c(Cl)c(C)c(C=O)c(O)c1CC=C(C)C=CC1(C)C(C)CCC(=O)C1C (centres unmarked) [Compound-5, acetylASC]
Blood glucose [1]: 237.2 ± 26.31 mg/dL
Serum IRI [1]: 15.5 ± 2.16 mU/ml
Serum total cholesterol, % change (male ICR and ddY mice; 0.01% in feed): −13%
Serum total cholesterol (male ICR and ddY mice; 0.01% in feed): 132 ± 6.1 mg/dL
Serum total cholesterol, % change (male ICR and ddY mice; 0.04% in feed): −27%
Serum total cholesterol (male ICR and ddY mice; 0.04% in feed): 117 ± 3.3 mg/dL
time within which all of the rats died following administration (male Wistar rats [2]; 2 mg/kg oral, solubilized with HCO-60, n=4): ≤ 1 h
lethality (male Wistar rats [2]; rat, suspended in a 2% acacia solution, 200 mg/kg): not killed
free Compound-1 in the blood after administration of Compound-5 (male Wistar rats [2]; suspended in acacia solution, oral, determined immediately by HPLC): no free Compound-1 was detected

COc1c(C=O)c(C)c(Cl)c(O)c1CC=C(C)C=CC1(C)C(C)CCC(=O)C1C (centres unmarked) [Compound-10, 2-O-methylASC]
fold increase in luciferase reporter activity (control = 1) (human RXRα): 1.45
degree of increase in the luciferase activity, RXR vector (human RXRα; control lot = 1): 58
Serum total cholesterol, % change (male ICR and ddY mice; 0.01% in feed): −30%
Serum total cholesterol (male ICR and ddY mice; 0.01% in feed): 130 ± 4.5 mg/dL
Serum total cholesterol, % change (male ICR and ddY mice; 0.04% in feed): −34%
Serum total cholesterol (male ICR and ddY mice; 0.04% in feed): 122 ± 3.0 mg/dL
degree of increase in the luciferase activity, RAR vector (RAR; 2 × 10^−5 M): 40

Cc1cc2c(cc1C1(c3ccc(C(=O)O)cn3)CC1)C(C)(C)CCC2(C)C [LG100268]
blood glucose levels, serum neutral fat levels and serum insulin levels [3]: drastically lower

CCOC(=O)C(C)(C)Oc1ccc(Cl)cc1 [clofibrate, reference compound]
animals died from circulatory insufficiency due to obstruction in the coronary artery (white rabbits): 2 animals among six

COc1c(Cl)c(C)c(C=O)c(OC)c1CC=C(C)C=CC1(C)C(C)CCC(=O)C1C (centres unmarked) [compound 7, 2,4-dimethylASC]
Serum total cholesterol, % change (male ICR and ddY mice; 0.04% in feed): −31%
Serum total cholesterol (male ICR and ddY mice; 0.04% in feed): 120 ± 5.9 mg/dL

CC(/C=C/C1(C)C(C)CCC(=O)C1C)=C\Cc1c(O)c(C=O)c(C)c(Cl)c1OCCCC(=O)O (centres unmarked) [compound 16]
Sterol balance (male Wistar rats [4]; administration 5 days): +15.12 mg/day
Sterol in feces, Acidic sterol (male Wistar rats [4]; administration 5 days): 8.67 mg/day
Sterol in feces, Cholesterol (male Wistar rats [4]; administration 5 days): 246.30 mg/day
Sterol in feces, Coprosterol (male Wistar rats [4]; administration 5 days): 41.05 mg/day
excretion increase (male Wistar rats [4]; administration 5 days): 8.95 mg/day
Sterol balance (male Wistar rats [4]; administration 10 days): +28.52 mg/day
Sterol in feces, Acidic sterol (male Wistar rats [4]; administration 10 days): 9.93 mg/day
Sterol in feces, Cholesterol (male Wistar rats [4]; administration 10 days): 233.08 mg/day
Sterol in feces, Coprosterol (male Wistar rats [4]; administration 10 days): 58.27 mg/day
excretion increase (male Wistar rats [4]; administration 10 days): 34.07 mg/day

CC(/C=C/[C@@]1(C)[C@H](C)CCC(=O)[C@@H]1C)=C\Cc1c(O)c(C=O)c(C)c(Cl)c1OC(=O)c1cccnc1 [compound 19, 4-O-nicotinoylASC]
Serum total cholesterol, % change (male ICR and ddY mice; 0.01% in feed): −13%
Serum total cholesterol (male ICR and ddY mice; 0.01% in feed): 91 ± 4.5 mg/dL
Serum total cholesterol, % change (male ICR and ddY mice; 0.04% in feed): −16%
Serum total cholesterol (male ICR and ddY mice; 0.04% in feed): 88 ± 3.0 mg/dL
